Tests used:
Experiment in all cases: relative viability (nuclei count vs DMSO), 5 days (fraction); higher = more cells survive
AT9283 + Lapatinib = compound: O=C(Nc1c[nH]nc1-c1nc2ccc(CN3CCOCC3)cc2[nH]1)NC1CC1 [AT9283] + CS(=O)(=O)CCNCc1ccc(-c2ccc3ncnc(Nc4ccc(OCc5cccc(F)c5)c(Cl)c4)c3c2)o1 [Lapatinib] (partner 2 µM)
Method in brief: (§1)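 Values are medians from duplicate plates. Each reflects relative viability, defined as the nuclei count of treated wells over that of vehicle wells. Lung cancer cell lines in 1536-well plates were pin-tool dosed one day after seeding with one drug alone or with a fixed anchor-drug dose plus five library-drug doses (not always all listed) in √10 steps, then fixed, stained and imaged at 4× after 5 days.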

AT9283 + Decitabine = compound: O=C(Nc1c[nH]nc1-c1nc2ccc(CN3CCOCC3)cc2[nH]1)NC1CC1 [AT9283] + Nc1ncn([C@H]2C[C@H](O)[C@@H](CO)O2)c(=O)n1 [Decitabine] (partner 2 µM)
Method in brief: as §1

Erlotinib + AZD7762 = compound: C#Cc1cccc(Nc2ncnc3cc(OCCOC)c(OCCOC)cc23)c1 [Erlotinib] + NC(=O)Nc1cc(-c2cccc(F)c2)sc1C(=O)N[C@H]1CCCNC1 [AZD7762] (partner 0.2 µM)
Method in brief: as §1

Erlotinib + Luminespib = compound: C#Cc1cccc(Nc2ncnc3cc(OCCOC)c(OCCOC)cc23)c1 [Erlotinib] + CCNC(=O)c1noc(-c2cc(C(C)C)c(O)cc2O)c1-c1ccc(CN2CCOCC2)cc1 [Luminespib] (partner 0.01 µM)
Method in brief: as §1

AT9283 + Luminespib = compound: O=C(Nc1c[nH]nc1-c1nc2ccc(CN3CCOCC3)cc2[nH]1)NC1CC1 [AT9283] + CCNC(=O)c1noc(-c2cc(C(C)C)c(O)cc2O)c1-c1ccc(CN2CCOCC2)cc1 [Luminespib] (partner 0.01 µM)
Method in brief: as §1

Row | Cell Line | relative viability (AT9283 + Lapatinib; first compound 0.003 µM) | relative viability (AT9283 + Lapatinib; first compound 0.03 µM) | relative viability (AT9283 + Lapatinib; first compound 0.09487 µM) | relative viability (AT9283 + Lapatinib; first compound 0.3 µM) | relative viability (AT9283 + Decitabine; first compound 0.003 µM) | relative viability (AT9283 + Decitabine; first compound 0.03 µM) | relative viability (AT9283 + Decitabine; first compound 0.09487 µM) | relative viability (AT9283 + Decitabine; first compound 0.3 µM) | relative viability (Erlotinib + AZD7762; first compound 0.02 µM) | relative viability (Erlotinib + AZD7762; first compound 0.2 µM) | relative viability (Erlotinib + AZD7762; first compound 0.6325 µM) | relative viability (Erlotinib + AZD7762; first compound 2 µM) | relative viability (Erlotinib + Luminespib; first compound 0.02 µM) | relative viability (Erlotinib + Luminespib; first compound 0.2 µM) | relative viability (Erlotinib + Luminespib; first compound 0.6325 µM) | relative viability (Erlotinib + Luminespib; first compound 2 µM) | relative viability (AT9283 + Luminespib; first compound 0.003 µM) | relative viability (AT9283 + Luminespib; first compound 0.03 µM) | relative viability (AT9283 + Luminespib; first compound 0.09487 µM) | relative viability (AT9283 + Luminespib; first compound 0.3 µM)
1 | NCI-H647 | 1.06 | 0.124 | 0.123 | 0.0895 | 0.427 | 0.401 | 0.205 | 0.127 | 0.465 | 0.439 | 0.508 | 0.431 | 0.218 | 0.119 | 0.142 | 0.0816 | 0.152 | 0.201 | 0.169 | 0.183
2 | NCI-H650 | 0.832 | 0.842 | 0.252 | 0.199 | 0.319 | 0.333 | 0.229 | 0.162 | 0.953 | 1.19 | 1.23 | 1.28 | 0.822 | 0.783 | 0.679 | 0.794 | 0.771 | 0.701 | 0.242 | 0.173
3 | NCI-H727 | 0.847 | 0.435 | 0.28 | 0.249 | 0.697 | 0.642 | 0.754 | 0.517 | 0.455 | 0.488 | 0.437 | 0.463 | 0.345 | – | 0.3 | 0.191 | 0.253 | 0.257 | 0.261 | 0.281
4 | NCI-H838 | 0.98 | 0.225 | 0.18 | 0.182 | 0.436 | 0.293 | 0.265 | 0.226 | 0.895 | 0.784 | 0.987 | 0.896 | 0.321 | 0.313 | 0.427 | 0.303 | 0.341 | 0.232 | 0.203 | 0.22
